Results taken from patent US20240115744A1, “FIBRIN-BINDING COMPOUNDS FOR IMAGING AND TREATMENT” (Collagen Medical, LLC, priority 2019, published 2024).
“Also recorded” adds a separate entry of the source. *1 amine or outer side, *2 acyl side, *3 side chain or, on linkers, in order; H or OH if unused. Where a SMILES comes first, the peptide text is derived from it. Bridges are numbered along the chain shown (N, C = ends). [ ]: non-standard residue; d: D form. The star is where a group is joined. NODAGA = O=C(O)CN1CCN(CC(=O)O)CCN(C(CCC(=O)*)C(=O)O)CC1; Tyr(3-Cl) = N[C@@H](Cc1ccc(O)c(Cl)c1)C(=O)O; X1 = O=C([C@@H]1CC(O)CN1[*:1])[*:2]

Assays:
[1] = molecular target: T1, vessel wall fibrin (Rattus norvegicus, UniProt P02680+P06399+P14480); experiment: Autoradiography / PET imaging of injured ipsi- and contra-lateral carotid arteries; type: in vivo; details: rat injured vs contra-lateral carotid; ^68Ga-19 vs ^68Ga-20
T1 construct: resulting in mural thrombus formation at the site of the crush; from tissue; host or cells: injured common carotid artery of Wistar rats (in vivo and ex vivo autoradiography)
T1 sequence (P06399 37-782 limits assumed): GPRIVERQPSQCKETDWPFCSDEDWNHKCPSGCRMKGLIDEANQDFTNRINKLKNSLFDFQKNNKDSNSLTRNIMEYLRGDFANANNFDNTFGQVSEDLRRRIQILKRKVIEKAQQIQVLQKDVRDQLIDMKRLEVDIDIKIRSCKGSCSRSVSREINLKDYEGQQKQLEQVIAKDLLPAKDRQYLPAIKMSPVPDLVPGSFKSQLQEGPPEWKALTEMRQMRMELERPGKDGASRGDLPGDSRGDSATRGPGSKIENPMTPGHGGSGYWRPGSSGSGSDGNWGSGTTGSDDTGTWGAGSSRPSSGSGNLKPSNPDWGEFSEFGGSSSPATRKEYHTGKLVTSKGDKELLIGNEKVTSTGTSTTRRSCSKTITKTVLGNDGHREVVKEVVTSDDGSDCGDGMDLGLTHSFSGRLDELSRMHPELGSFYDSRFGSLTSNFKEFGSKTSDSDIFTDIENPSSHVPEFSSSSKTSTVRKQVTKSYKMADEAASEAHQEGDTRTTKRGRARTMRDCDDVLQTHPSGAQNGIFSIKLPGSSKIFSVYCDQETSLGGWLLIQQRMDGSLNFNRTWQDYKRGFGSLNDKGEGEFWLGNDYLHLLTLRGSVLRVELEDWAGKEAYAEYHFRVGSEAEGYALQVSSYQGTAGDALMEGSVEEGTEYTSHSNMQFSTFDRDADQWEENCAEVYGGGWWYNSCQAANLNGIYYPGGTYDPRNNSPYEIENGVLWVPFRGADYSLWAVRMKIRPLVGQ
T1 sequence (P14480 33-479 limits assumed): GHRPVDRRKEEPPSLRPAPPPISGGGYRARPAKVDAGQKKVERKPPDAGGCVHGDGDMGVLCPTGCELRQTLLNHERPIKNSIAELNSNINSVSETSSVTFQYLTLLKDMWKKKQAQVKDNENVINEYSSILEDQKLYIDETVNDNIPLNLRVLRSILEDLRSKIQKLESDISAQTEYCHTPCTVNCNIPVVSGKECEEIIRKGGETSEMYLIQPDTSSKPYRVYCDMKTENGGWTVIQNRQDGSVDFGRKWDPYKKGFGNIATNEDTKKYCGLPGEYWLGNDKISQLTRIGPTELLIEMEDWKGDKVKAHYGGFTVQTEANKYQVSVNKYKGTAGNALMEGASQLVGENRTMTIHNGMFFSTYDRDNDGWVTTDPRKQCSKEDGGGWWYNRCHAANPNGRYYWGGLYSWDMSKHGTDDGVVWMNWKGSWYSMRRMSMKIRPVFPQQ
T1 sequence (P02680 27-445 limits assumed): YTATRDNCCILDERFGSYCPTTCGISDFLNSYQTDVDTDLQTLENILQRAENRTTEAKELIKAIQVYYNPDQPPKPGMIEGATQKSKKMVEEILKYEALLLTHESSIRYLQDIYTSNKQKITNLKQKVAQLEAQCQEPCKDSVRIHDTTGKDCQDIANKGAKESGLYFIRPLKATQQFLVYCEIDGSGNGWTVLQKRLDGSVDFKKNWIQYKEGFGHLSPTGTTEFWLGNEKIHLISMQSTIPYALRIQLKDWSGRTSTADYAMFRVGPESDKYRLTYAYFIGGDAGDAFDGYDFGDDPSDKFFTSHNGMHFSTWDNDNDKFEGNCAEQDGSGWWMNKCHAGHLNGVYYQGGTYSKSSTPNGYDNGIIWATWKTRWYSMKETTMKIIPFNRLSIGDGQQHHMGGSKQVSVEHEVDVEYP
Description: (§1) Rat carotid endothelial injury model in vivo studies were conducted, wherein the common carotid artery is isolated and crushed briefly with a hemostat, resulting in mural thrombus formation at the site of the crush. The vessel wall fibrin is then imaged with our PET compounds. All six compounds were evaluated in this model.
(§2) Adult male Wistar rats were anesthetized by isoflurane (1-2% in medical air). Body temperature was maintained at 37° C. using a thermo-regulated heating pad. The right femoral vein and artery were cannulated for compound injection and blood sampling, respectively. Endothelial injury was induced by crush injury to the right common carotid artery (1-2 cm proximal to the carotid bifurcation) by clamping the vessel with a hemostat for 5 minutes. Immediately following the surgical procedures, rats were placed in a micro-PET/CT scanner. Compound (200-600 μL) was injected, PET-CT images were acquired, and blood samples were drawn from the femoral artery prior to compound injection and at 2, 5, 10, 15, 30, 60, 90, 120 min post injection. Tissues were harvested at the end for ex vivo analyses.
The injured ipsi- and the contra-lateral carotid arteries were placed on a multipurpose film and imaged using a Perkin-Elmer Cyclone Plus Storage Phosphor system. […]

[2] = system: fibrin in human carotid endarterectomy specimens; experiment: Ex vivo functional probe assay of human carotid endarterectomy specimens; details: compared to non-binding probe ^68Ga-22; 12 patients; P<0.05
Description: Twelve discarded surgical specimens from asymptomatic patients who underwent elective carotid endarterectomy at Massachusetts General Hospital were obtained and used in ex vivo studies described herein. Samples were processed for histology, autoradiography, and probe binding assay as described above (Examples 6 and 13).
Discarded surgical specimens were embedded in optimal cutting temperature compound, snap-frozen, and stored at −80° C. before further analysis. Alternating consecutive cryosections were processed for histology and autoradiography; triplicate tissue samples with 50 μm gap in between were used for these experiments. The remaining tissue samples were processed for functional probe assay.
For functional probe assay, samples were thawed at room temperature, weighed (8-15 mg per sample), cut into duplicates, and placed into tubes containing 111-148 kBq (3-4 μCi)^68Ga-20 or the non-fibrin binding control probe ^68Ga-22 in 1 mL PBS. The mixture was shaken for 45 minutes at room temperature. After centrifugation, supernatant (sup-1) was removed, kept for further analysis, and tissue samples were washed with PBS (1 mL); this procedure was repeated twice for each sample. Wash solutions (wash-1 and wash-2) were kept for further analysis. Activities in tissue samples and solutions sol-1, wash-1, and wash-2 were measured on a gamma counter. Percent uptake was calculated as follows: […]

[3] = Blood analysis in rat model of carotid artery crush injury (blood clearance); type: in vivo; details: relative to the other compounds compared
Description: as §1, §2
Blood samples were drawn from prior to probe injection and at 2, 5, 10, 15, 30, 60, 90, 120 min post injection. Each blood sample was weighed and counted using a gamma-counter. The activity in each sample was calculated as percent injected dose (% ID) per gram of tissue.

For CC[C@H](C)[C@H](NC(=O)[C@H](Cc1cnc[nH]1)NC(=O)[C@@H]1CSSC[C@H](NC(=O)[C@@H](CCC(=O)O)NC(=O)[C@H](Cc2ccc(O)cc2)NC(=O)CCC(C(=O)O)N2CCN(CC(=O)O)CCN(CC(=O)O)CC2)C(=O)N2CC(O)C[C@H]2C(=O)N[C@@H](Cc2ccc(O)c(Cl)c2)C(=O)NCC(=O)N[C@@H](CC(C)C)C(=O)N1)C(=O)N[C@H](CCC(N)=O)C(N)=O (stereo partly shown) [Compound ^68Ga-20, metal not drawn] ({NODAGA}-Y[dE]C[X1][Tyr(3-Cl)]GLCHI[dQ]-NH2; disulfide 3-8), the “ipsi: contra ratios” value [1] was “better ipsi: contra ratios”, the “uptake, functional probe assay” value [2] was “variable but significantly increased; also recorded: significantly higher uptake” and the blood clearance ([3]; rat carotid artery crush injury, 2-120 min post injection) was “faster blood clearance”. The metabolic stability ([3]; rat) was “better metabolic stability”.
